Test results published in patent publication US7109338B2, “1,2-disubstituted 1,4-dihydro-4-oxoquinoline compounds” (priority 1999, dated 2006).
≈ marks a conversion by molar mass, not a printed value.

Legend:
[1] = tested on: Poliovirus type 1 (Polio 1, Sabin); experiment: microbe, parasite or virus in culture; type: cell-based
[2] = tested on: echovirus type 11 (Echo 11, Gregory); experiment: In vitro anti-picornavirus activity (MTT), Echo 11; type: cell-based; conditions: HeLa-S3 cells, MTT method, 37° C.
[3] = tested on: coxsackievirus type A7 (CA7); experiment: In vitro anti-picornavirus activity (MTT), CA7; type: cell-based; conditions: HeLa-S3 cells, MTT method, 37° C.
[4] = tested on: coxsackievirus type B4 (CB4,JVB); experiment: In vitro anti-picornavirus activity (MTT), CB4; type: cell-based; conditions: HeLa cells, MTT method, 37° C.
[5] = tested on: human rhinovirus type 1B (HRV 1B, B632); experiment: Anti-rhinovirus activity (MTT), HRV1B; type: cell-based; conditions: HeLa (Ohio strain) cells, MTT method, 33° C.
HRV 2 (HGP) = experiment: Anti-rhinovirus activity (MTT), HRV2; type: cell-based, human rhinovirus; conditions: HeLa (Ohio strain) cells, MTT method, 33° C.
HRV 89 (41617-Gallo) = experiment: Anti-rhinovirus activity (MTT), HRV89; type: cell-based, human rhinovirus; conditions: HeLa (Ohio strain) cells, MTT method, 33° C.
HeLa cells = experiment: Cytotoxicity (MTT, without virus), HeLa; conditions: HeLa, no virus, incubated for 4 days
HeLa-S3 cells = experiment: Cytotoxicity (MTT, without virus), HeLa-S3; conditions: HeLa-S3, no virus, incubated for 4 days
HeLa (Ohio strain)cells = experiment: Cytotoxicity (MTT, without virus), HeLa(Ohio); conditions: HeLa(Ohio), no virus, incubated for 4 days

| SMILES | IC50 Polio 1 [1] [µg/mL] | IC50 Echo 11 [2] [µg/mL] | IC50 CA7 [3] [µg/mL] | IC50 CB4 [4] [µg/mL] | IC50 HRV1B [5] [µg/mL] | IC50 HRV2 (HRV 2 (HGP)) [µg/mL] | IC50 HRV89 (HRV 89 (41617-Gallo)) [µg/mL] | Cytotoxicity CC50 HeLa (HeLa cells) [µg/mL] | Cytotoxicity CC50 HeLa-S3 (HeLa-S3 cells) [µg/mL] | Cytotoxicity CC50 HeLa(Ohio) (HeLa (Ohio strain)cells) [µg/mL] |
| --- | --- | --- | --- | --- | --- | --- | --- | --- | --- | --- |
| COc1ccc(-c2c(C)c(=O)c3cc(OCC(C)C)c(C)cc3n2C)cc1C [Compound A237] | 1.1 (≈ 2.9 µM) | 0.40 (≈ 1.05 µM) | >4 | 2.9 (≈ 7.64 µM) | 2.0 (≈ 5.27 µM) | 0.29 (≈ 0.764 µM) | 0.46 (≈ 1.21 µM) | >4 | >4 | >4 |
| Cc1c(-c2ccccc2)n(C)c2cc(C(C)C)c(OC(C)C)cc2c1=O [Compound A258] | 0.62 (≈ 1.77 µM) | 0.23 (≈ 0.658 µM) | 4.9 (≈ 14 µM) | >1.6 | 0.62 (≈ 1.77 µM) | 0.45 (≈ 1.29 µM) | 0.66 (≈ 1.89 µM) | 4.5 | >5 | 4.9 |
| Cc1cc2c(c(C)c1OCC(C)C)c(=O)cc(-c1ccccc1)n2C [Compound A285] | 0.69 (≈ 2.06 µM) | 0.2 (≈ 0.596 µM) | 3.1 (≈ 9.24 µM) | 1.9 (≈ 5.66 µM) | 0.68 (≈ 2.03 µM) | 0.18 (≈ 0.537 µM) | 0.46 (≈ 1.37 µM) | >4 | >4 | >4 |
| Cc1cc2c(c(C)c1OCC(C)C)c(=O)c(C)c(-c1ccccc1)n2C [Compound A286] | 1.3 (≈ 3.72 µM) | 0.57 (≈ 1.63 µM) | >5 | 1.4 (≈ 4.01 µM) | 0.87 (≈ 2.49 µM) | 0.23 (≈ 0.658 µM) | 0.61 (≈ 1.75 µM) | >5 | >5 | >5 |
| CCn1c(-c2ccccn2)cc(=O)c2cc(C(C)C)ccc21 [Compound A296] | 5.1 (≈ 17.4 µM) | 1.7 (≈ 5.81 µM) | 20 (≈ 68.4 µM) | 17 (≈ 58.1 µM) | 4.5 (≈ 15.4 µM) | 2.0 (≈ 6.84 µM) | 4.8 (≈ 16.4 µM) | 75 | >100 | 68 |
| CC(C)c1ccc2c(c1)c(=O)cc(-c1ccco1)n2C [Compound A303] | 1.4 (≈ 5.24 µM) | 0.83 (≈ 3.1 µM) | 6.5 (≈ 24.3 µM) | 3.6 (≈ 13.5 µM) | 1.4 (≈ 5.24 µM) | 0.97 (≈ 3.63 µM) | 1.9 (≈ 7.11 µM) | >20 | >20 | >20 |
| CC(C)c1ccc2c(c1)c(=O)cc(-c1ccn(C)c1)n2C [Compound A306] | 0.83 (≈ 2.96 µM) | 0.49 (≈ 1.75 µM) | 2.9 (≈ 10.3 µM) | 2.1 (≈ 7.49 µM) | 0.89 (≈ 3.17 µM) | 0.73 (≈ 2.6 µM) | 0.88 (≈ 3.14 µM) | 14 | 26 | 25 |
| CCn1c(-c2ccn(C)c2)cc(=O)c2cc(C(C)C)ccc21 [Compound A307] | 0.79 (≈ 2.68 µM) | 0.34 (≈ 1.15 µM) | 1.9 (≈ 6.45 µM) | 1.3 (≈ 4.42 µM) | 0.83 (≈ 2.82 µM) | 0.39 (≈ 1.32 µM) | 0.86 (≈ 2.92 µM) | >20 | >20 | 18 |
| CC(C)c1ccc2c(c1)c(=O)cc(-c1cccs1)n2C [Compound A308] | 0.87 (≈ 3.07 µM) | 0.31 (≈ 1.09 µM) | 3.9 (≈ 13.8 µM) | 1.6 (≈ 5.65 µM) | 0.81 (≈ 2.86 µM) | 0.36 (≈ 1.27 µM) | 0.94 (≈ 3.32 µM) | 11 | 16 | 11 |
| CCn1c(-c2cccs2)cc(=O)c2cc(C(C)C)ccc21 [Compound A309] | 0.76 (≈ 2.56 µM) | 0.28 (≈ 0.941 µM) | 3.3 (≈ 11.1 µM) | 1.5 (≈ 5.04 µM) | 0.48 (≈ 1.61 µM) | 0.25 (≈ 0.841 µM) | 0.58 (≈ 1.95 µM) | 12 | 18 | 14 |
| CCn1c(-c2cccs2)c(C)c(=O)c2cc(C(C)C)ccc21 [Compound A311] | 0.67 (≈ 2.15 µM) | 0.42 (≈ 1.35 µM) | 3.3 (≈ 10.6 µM) | 2.0 (≈ 6.42 µM) | 1.0 (≈ 3.21 µM) | 0.53 (≈ 1.7 µM) | 1.2 (≈ 3.85 µM) | 6.8 | >10 | >10 |
| CCn1c(-c2ccsc2)cc(=O)c2cc(C(C)C)ccc21 [Compound A313] | 0.94 (≈ 3.16 µM) | 0.35 (≈ 1.18 µM) | 3.8 (≈ 12.8 µM) | 3.0 (≈ 10.1 µM) | 0.90 (≈ 3.03 µM) | 0.33 (≈ 1.11 µM) | 0.96 (≈ 3.23 µM) | 18 | >20 | 15 |
| Cc1ccc(-c2cc(=O)c3cc(C(C)C)ccc3n2C)s1 [Compound A314] | 0.60 (≈ 2.02 µM) | 0.51 (≈ 1.71 µM) | 1.5 (≈ 5.04 µM) | 0.82 (≈ 2.76 µM) | 0.56 (≈ 1.88 µM) | 0.55 (≈ 1.85 µM) | 0.38 (≈ 1.28 µM) | 7.0 | >10 | >10 |
| CCn1c(-c2ccc(C)s2)cc(=O)c2cc(C(C)C)ccc21 [Compound A315] | 0.54 (≈ 1.73 µM) | 0.30 (≈ 0.963 µM) | 1.2 (≈ 3.85 µM) | 0.63 (≈ 2.02 µM) | 0.52 (≈ 1.67 µM) | 0.28 (≈ 0.899 µM) | 0.26 (≈ 0.835 µM) | 7.1 | >10 | >10 |
| CC(C)c1ccc2c(c1)c(=O)cc(-c1ccc(Br)s1)n2C [Compound A316] | 0.78 (≈ 2.15 µM) | 0.39 (≈ 1.08 µM) | 1.2 (≈ 3.31 µM) | 1.1 (≈ 3.04 µM) | 0.56 (≈ 1.55 µM) | 0.29 (≈ 0.8 µM) | 0.27 (≈ 0.745 µM) | >5 | >5 | >5 |
